# Source: PubChem BioAssay AID330 (DTP/NCI, 2004)
# Where “and” joins values, the source holds several entries; their conditions need not be identical. Equal entries are not always repeated. Inconclusive results and toxic doses are left out.
# System: P388 leukemia ip, CD2F1 mice, survival T/C
# Experiment: NCI In Vivo Anticancer Drug Screen. Data for tumor model P388 Leukemia (intraperitoneal) in CD2F1 (CDF1) mice
# Conditions: endpoint: median survival time, higher = longer survival
# How it was run: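 Mice carrying the transplanted tumor received test compound or vehicle. Survival was recorded in each group, and the value is the treated-group measurement divided by that of the vehicle-treated control group.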
# [1] = dose: 50.0 mg/kg/injection, schedule: Q01DX009 (ip), vehicle: Klucel (hydroxypropylcellulose) (HPC)
# [2] = dose: 100.0 mg/kg/injection, schedule: Q01DX009 (ip), vehicle: Klucel (hydroxypropylcellulose) (HPC)
# [3] = dose: 50.0 mg/kg/injection, schedule: Q01DX005 (ip), vehicle: Klucel (hydroxypropylcellulose) (HPC)
# [4] = dose: 100.0 mg/kg/injection, schedule: Q01DX005 (ip), vehicle: Klucel (hydroxypropylcellulose) (HPC)
# [5] = dose: 200.0 mg/kg/injection, schedule: Q01DX005 (ip), vehicle: Klucel (hydroxypropylcellulose) (HPC)
# [6] = dose: 60.0 mg/kg/injection, schedule: Q01DX005 (ip), vehicle: saline with Tween-80
# [7] = dose: 120.0 mg/kg/injection, schedule: Q01DX005 (ip), vehicle: saline with Tween-80
# [8] = dose: 240.0 mg/kg/injection, schedule: Q01DX005 (ip), vehicle: saline with Tween-80
# [9] = dose: 50.0 mg/kg/injection, schedule: Q01DX009 (ip), vehicle: saline
# [10] = dose: 100.0 mg/kg/injection, schedule: Q01DX009 (ip), vehicle: saline
# [11] = dose: 200.0 mg/kg/injection, schedule: Q01DX009 (ip), vehicle: saline
# [12] = dose: 200.0 mg/kg/injection, schedule: Q01DX009 (ip), vehicle: Klucel (hydroxypropylcellulose) (HPC)
# [13] = dose: 100.0 mg/kg/injection, schedule: Q01DX001 (ip), vehicle: saline with Tween-80
# [14] = dose: 200.0 mg/kg/injection, schedule: Q01DX001 (ip), vehicle: saline with Tween-80
# [15] = dose: 400.0 mg/kg/injection, schedule: Q01DX001 (ip), vehicle: saline with Tween-80
# [16] = dose: 25.0 mg/kg/injection, schedule: Q01DX009 (ip), vehicle: saline
# [17] = dose: 50.0 mg/kg/injection, schedule: Q01DX005 (ip), vehicle: saline with Tween-80
# [18] = dose: 100.0 mg/kg/injection, schedule: Q01DX005 (ip), vehicle: saline with Tween-80
# [19] = dose: 200.0 mg/kg/injection, schedule: Q01DX005 (ip), vehicle: saline with Tween-80
compound,measurement,setting,value
Nc1nc(N)nc(Cl)n1,T/C,"dose: 12.5 mg/kg/injection, schedule: Q01DX009 (ip), vehicle: Klucel (hydroxypropylcellulose) (HPC)",100 % of control and 91 % of control
same,T/C,"dose: 25.0 mg/kg/injection, schedule: Q01DX009 (ip), vehicle: Klucel (hydroxypropylcellulose) (HPC)",101 % of control and 104 % of control
same,T/C,[1],123 % of control and 91 % of control
same,T/C,[2],104 % of control and 96 % of control
O=S1(=O)Cc2ccccc21,T/C,"dose: 100.0 mg/kg/injection, schedule: Q01DX001 (ip), vehicle: Klucel (hydroxypropylcellulose) (HPC)",92 % of control
same,T/C,"dose: 200.0 mg/kg/injection, schedule: Q01DX001 (ip), vehicle: Klucel (hydroxypropylcellulose) (HPC)",98 % of control
CC(=O)[C@H]1C[C@H](O)[C@H]2[C@@H]3CCC4=CC(=O)CC[C@]4(C)[C@H]3C[C@@H](O)[C@@]21C,T/C,[3],100 % of control
same,T/C,[4],100 % of control
same,T/C,[5],97 % of control
COc1cc2c(cc1C(CC(C)=O)c1cc(OC)c(OC)c(OC)c1)OCO2 (configuration not stated),T/C,[6],100 % of control
same,T/C,[7],100 % of control
same,T/C,[8],103 % of control
NC1CCCC1C(=O)O (configuration not stated),T/C,[9],96 % of control
same,T/C,[10],100 % of control
same,T/C,[11],102 % of control
CCN(CC)Cc1cc(N=Nc2cccc3ccccc23)c2ccccc2c1O,T/C,[1],102 % of control
same,T/C,[2],108 % of control
same,T/C,[12],100 % of control
Cc1ccccc1C1OC2=C(Nc3ccc([N+](=O)[O-])cc3N2)C1=O (configuration not stated),T/C,"dose: 60.0 mg/kg/injection, schedule: Q01DX005 (ip), vehicle: Klucel (hydroxypropylcellulose) (HPC)",88 % of control
same,T/C,"dose: 120.0 mg/kg/injection, schedule: Q01DX005 (ip), vehicle: Klucel (hydroxypropylcellulose) (HPC)",90 % of control
same,T/C,"dose: 240.0 mg/kg/injection, schedule: Q01DX005 (ip), vehicle: Klucel (hydroxypropylcellulose) (HPC)",101 % of control
CO/N=C1/C=CC(Cl)=C/C1=C(\c1ccccc1Cl)C(C#N)c1ccccc1Cl (configuration not stated),T/C,[13],94 % of control
same,T/C,[14],102 % of control
same,T/C,[15],92 % of control
COC(=O)C1C2C=CC(CC2)C1C(=O)OC (configuration not stated),T/C,"dose: 100.0 mg/kg/injection, schedule: Q04DX003 (ip), vehicle: saline with Tween-80",98 % of control
same,T/C,"dose: 200.0 mg/kg/injection, schedule: Q04DX003 (ip), vehicle: saline with Tween-80",102 % of control
same,T/C,"dose: 400.0 mg/kg/injection, schedule: Q04DX003 (ip), vehicle: saline with Tween-80",89 % of control
COC1CCC(NS(=O)(=O)c2ccc(N)cc2)[N-]N1.[Ag+] (configuration not stated),T/C,"dose: 12.5 mg/kg/injection, schedule: Q01DX009 (ip), vehicle: saline",93 % of control
same,T/C,[16],101 % of control
same,T/C,[9],98 % of control and 109 % of control
CP1(=O)CC23CCCCC2(C1)O3 (configuration not stated),T/C,[1],109 % of control
same,T/C,[2],104 % of control
same,T/C,[12],109 % of control
CN1C(=S)C2(C1c1ccccc1)C(C)(C)CCCC2(C)C (configuration not stated),T/C,[13],92 % of control
same,T/C,[14],92 % of control
same,T/C,[15],87 % of control
Cc1ccc(S(=O)(=O)CC2(Br)CCc3ccccc3C2=O)cc1 (configuration not stated),T/C,"dose: 100.0 mg/kg/injection, schedule: Q04DX003 (ip), vehicle: saline",97 % of control
same,T/C,"dose: 200.0 mg/kg/injection, schedule: Q04DX003 (ip), vehicle: saline",91 % of control
same,T/C,"dose: 400.0 mg/kg/injection, schedule: Q04DX003 (ip), vehicle: saline",95 % of control
O=C1/C(=C\c2ccccc2O)Cc2ccccc21,T/C,[3],107 % of control
same,T/C,[4],103 % of control
same,T/C,[5],91 % of control
CC(O)C(O)C(=O)O (configuration not stated),T/C,[9],94 % of control
same,T/C,[10],93 % of control
same,T/C,[11],91 % of control
same,T/C,"dose: 400.0 mg/kg/injection, schedule: Q01DX009 (ip), vehicle: saline",92 % of control
C=CCC12C[C@H](OC)[C@@H](O)[C@](OC)(C1O)[C@H](c1ccc3c(c1)OCO3)[C@H]2C (some centres not stated),T/C,"dose: 16.25 mg/kg/injection, schedule: Q01DX005 (ip), vehicle: Klucel (hydroxypropylcellulose) (HPC)",108 % of control
same,T/C,"dose: 32.5 mg/kg/injection, schedule: Q01DX005 (ip), vehicle: Klucel (hydroxypropylcellulose) (HPC)",98 % of control
same,T/C,"dose: 65.0 mg/kg/injection, schedule: Q01DX005 (ip), vehicle: Klucel (hydroxypropylcellulose) (HPC)",99 % of control
same,T/C,"dose: 130.0 mg/kg/injection, schedule: Q01DX005 (ip), vehicle: Klucel (hydroxypropylcellulose) (HPC)",89 % of control
O=C(C[n+]1ccnc2ccccc21)c1ccc(Cl)cc1,T/C,[3],95 % of control
same,T/C,[4],100 % of control
same,T/C,[5],106 % of control
C=CCn1c(=O)n(CC)c(=O)c2[nH]c(Cl)nc21,T/C,"dose: 15.0 mg/kg/injection, schedule: Q01DX009 (ip), vehicle: saline",106 % of control
same,T/C,"dose: 30.0 mg/kg/injection, schedule: Q01DX009 (ip), vehicle: saline",110 % of control
same,T/C,"dose: 60.0 mg/kg/injection, schedule: Q01DX009 (ip), vehicle: saline",104 % of control
CSc1ccccc1[As](c1ccccc1)c1ccccc1,T/C,[1],95 % of control
same,T/C,[2],91 % of control
same,T/C,[12],97 % of control
CC(=O)N(O)C(C)=O,T/C,"dose: 50.0 mg/kg/injection, schedule: Q01DX005 (ip), vehicle: saline",100 % of control
same,T/C,"dose: 100.0 mg/kg/injection, schedule: Q01DX005 (ip), vehicle: saline",104 % of control
same,T/C,"dose: 200.0 mg/kg/injection, schedule: Q01DX005 (ip), vehicle: saline",107 % of control
COc1cc(C(=O)O)on1,T/C,[16],103 % of control
same,T/C,[9],99 % of control
same,T/C,[10],89 % of control and 96 % of control
O=C1c2ccccc2C(=O)c2c1c(O)c1cccnc1c2O,T/C,[17],103 % of control
same,T/C,[18],100 % of control
same,T/C,[19],95 % of control
Oc1[nH]c2ccccc2c1N=NC1=NCCN1,T/C,"dose: 60.0 mg/kg/injection, schedule: Q01DX005 (ip), vehicle: saline",101 % of control
same,T/C,"dose: 120.0 mg/kg/injection, schedule: Q01DX005 (ip), vehicle: saline",104 % of control
same,T/C,"dose: 240.0 mg/kg/injection, schedule: Q01DX005 (ip), vehicle: saline",87 % of control
O=C1C(N=Nc2ccc([N+](=O)[O-])cc2)Sc2nc3ccccc3n21 (configuration not stated),T/C,"dose: 7.5 mg/kg/injection, schedule: Q01DX005 (ip), vehicle: Klucel (hydroxypropylcellulose) (HPC)",99 % of control
same,T/C,"dose: 15.0 mg/kg/injection, schedule: Q01DX005 (ip), vehicle: Klucel (hydroxypropylcellulose) (HPC)",92 % of control
same,T/C,"dose: 30.0 mg/kg/injection, schedule: Q01DX005 (ip), vehicle: Klucel (hydroxypropylcellulose) (HPC)",90 % of control
CCNc1nn2ccccc2c1/C=C(/C#N)C(=O)OCC,T/C,"dose: 25.0 mg/kg/injection, schedule: Q01DX001 (ip), vehicle: saline with Tween-80",94 % of control
same,T/C,"dose: 50.0 mg/kg/injection, schedule: Q01DX001 (ip), vehicle: saline with Tween-80",91 % of control
same,T/C,[13],91 % of control
same,T/C,[14],91 % of control
COc1ccc(Nc2c3sc4cc(OC)ccc4nc-3c3ccccc3c2=O)cc1,T/C,[17],94 % of control
same,T/C,[18],92 % of control
same,T/C,[19],94 % of control
C1OC1CN1CCN(CC2CO2)CC1 (configuration not stated),T/C,"dose: 4.0 mg/kg/injection, schedule: Q01DX009 (ip), vehicle: saline",124 % of control
same,T/C,"dose: 8.0 mg/kg/injection, schedule: Q01DX009 (ip), vehicle: saline",150 % of control
same,T/C,"dose: 16.0 mg/kg/injection, schedule: Q01DX009 (ip), vehicle: saline",196 % of control
CCn1c(=O)c2[nH]c(Br)nc2n(CCOC)c1=O,T/C,[1],90 % of control
same,T/C,[2],93 % of control
same,T/C,[12],104 % of control
NCc1ccccc1,T/C,[9],103 % of control and 95 % of control
same,T/C,[10],101 % of control and 109 % of control
S=C(SCc1cc(Cl)cc2c1OCOC2)N1CCSCC1,T/C,[6],105 % of control
same,T/C,[7],92 % of control
same,T/C,[8],92 % of control
